Several values for one entry are separate records, joined by “and”; a condition that tells them apart may be missing. Equal values may be shown once.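 Growth conditions: 96-well plates. Treatment: test compound, 48 hours, 5 concentrations. Analysis: linear interpolation between bracketing concentrations; unreached endpoints set to highest concentration. GI50 = concentration required for 50% inhibition of growth. TGI marks complete inhibition of growth.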
How the values were obtained:
Experiment in all cases: NCI-60 cell line screen, 48 h
A498 renal = test system: A498 renal
SR leukemia = test system: SR leukemia
KM12 colon = test system: KM12 colon
RXF 393 renal = test system: RXF 393 renal
NCI-H460 lung = test system: NCI-H460 lung
TK-10 renal = test system: TK-10 renal
MOLT-4 leukemia = test system: MOLT-4 leukemia
HT29 colon = test system: HT29 colon
DU-145 prostate = test system: DU-145 prostate
SK-MEL-28 melanoma = test system: SK-MEL-28 melanoma

SMILES | GI50 (A498 renal) | TGI (A498 renal) | GI50 (SR leukemia) | TGI (SR leukemia) | GI50 (KM12 colon) | TGI (KM12 colon) | GI50 (RXF 393 renal) | TGI (RXF 393 renal) | GI50 (NCI-H460 lung) | TGI (NCI-H460 lung) | GI50 (TK-10 renal) | TGI (TK-10 renal) | GI50 (MOLT-4 leukemia) | TGI (MOLT-4 leukemia) | GI50 (HT29 colon) | TGI (HT29 colon) | GI50 (DU-145 prostate) | TGI (DU-145 prostate) | GI50 (SK-MEL-28 melanoma) | TGI (SK-MEL-28 melanoma)
c1ccc(Sc2ncnc3ccccc23)cc1 | 15.4 µM | 39.2 µM | 4.78 µM | 53.1 µM | 13.2 µM | 28.2 µM | 13.4 µM | 27.1 µM | 24.2 µM | > 100 µM | 27.6 µM | > 100 µM | 4.98 µM | 36 µM | 19.3 µM | 44.7 µM | 12 µM | 24.9 µM | 23.7 µM | 89.2 µM
CC1(COc2ccc3c(c2)ncn3-c2ccc3cccc(N4CCC(N)CC4)c3n2)COC1 | 5.01 µM and 2.03 µM | 10.7 µM and 4.27 µM | 0.769 µM and 0.347 µM | 4.7 µM and 2.4 µM | 0.0519 µM and 0.118 µM | 5.74 µM and > 10 µM | 1.32 µM and 0.893 µM | 3.3 µM and 2.71 µM | 2.17 µM and 2.48 µM | 6.11 µM and 7.46 µM | 1.97 µM and 2.56 µM | 6.73 µM and > 10 µM | 1.56 µM and 1.51 µM | 5.71 µM and 5.97 µM | 2.92 µM and 3.29 µM | 7.99 µM and > 10 µM | 2.19 µM and 1.5 µM | 13 µM and > 10 µM | 3.5 µM and 3.37 µM | 9.34 µM and 8.36 µM
CCn1c(-c2nonc2N)nc2c(C#CC(C)(C)O)nc(OC[C@@H](N)c3ccccc3)cc21 | 2.2 µM | 12.4 µM | 5.67 µM | 16.8 µM | 3.05 µM | 6.75 µM | 2.85 µM | 5.97 µM | 3.97 µM | 8.12 µM | 5.09 µM | 11.3 µM | 4.42 µM | 16 µM | 4.9 µM | 9.53 µM | 4.45 µM | 8.85 µM | 4.85 µM | 8.47 µM
N#Cc1c[nH]n2c(N=Nc3ccc(Cl)cc3)c(O)nc12 | 44.2 µM | 96.3 µM | 25.4 µM | > 100 µM | 29.4 µM | > 100 µM | 29.7 µM | > 100 µM | 29.1 µM | > 100 µM | 21.3 µM | 68.3 µM | 33.7 µM | > 100 µM | 50.2 µM | > 100 µM | 42.6 µM | > 100 µM | 44.4 µM | > 100 µM
N#CC(C#N)=C/C=C(\Sc1nc2ccccc2s1)c1ccc(Cl)cc1 | 8.26 µM | 28.6 µM | 0.844 µM | – | 8.9 µM | 33.6 µM | 7.59 µM | 25.9 µM | 18 µM | > 64.9 µM | 6.18 µM | 15 µM | 0.565 µM | – | 3.27 µM | > 31.7 µM | 3.98 µM | 17.1 µM | 5.34 µM | 21.7 µM
C[C@]12CCC3c4ccc(O)cc4CCC3C1CC[C@@]2(O)CNC(=O)/C=C/c1ccc(O)c(O)c1 (stereo partly drawn) | 14.9 µM | 29.8 µM | 5.66 µM | 26.7 µM | 2.89 µM | 11.1 µM | 3.29 µM | 18.7 µM | 4.9 µM | 31.6 µM | 2.52 µM | 13.7 µM | 5.09 µM | 31.2 µM | 4.83 µM | 19.1 µM | 3.29 µM | 14.8 µM | 24.8 µM | 59 µM
O=C(/C(=C/c1ccc([N+](=O)[O-])cc1)SCc1ccccc1)c1ccc(Cl)cc1 | 13.2 µM | 28.2 µM | 1.76 µM | 6.63 µM | 2.34 µM | 6.91 µM | 1.68 µM | 3.47 µM | 5.34 µM | 20.3 µM | 5.11 µM | 18.1 µM | 2.61 µM | > 100 µM | 2.54 µM | 5.75 µM | 3.6 µM | 13.8 µM | 4.09 µM | 15.3 µM
COCCOc1ccc(-c2nc3ccc(-c4nc5ccc(N6CCN(C)CC6)cc5[nH]4)cc3[nH]2)cc1 | 1.21 µM | 3.39 µM | 0.5 µM | 21.9 µM | 2.58 µM | 14.3 µM | 1.8 µM | 3.63 µM | 3.63 µM | 14.7 µM | 4.74 µM | 40.2 µM | 2.81 µM | > 100 µM | 0.579 µM | > 100 µM | 1.13 µM | 9.59 µM | 0.478 µM | 2.21 µM
Cc1csc(-c2nnc(Nc3ccc(Oc4ncccc4-c4ccnc(N)n4)cc3)c3ccccc23)c1 | > 100 µM | > 100 µM | < 0.01 µM | > 100 µM | 2.41 µM | > 100 µM | 1.51 µM | > 100 µM | 0.0214 µM | > 100 µM | > 100 µM | > 100 µM | 3.34 µM | > 100 µM | 0.558 µM | > 100 µM | 4.61 µM | > 100 µM | 2.1 µM | > 100 µM

Source: PubChem BioAssay (NCI)
